Series [1] concerns Influenza B virus. The experiment in a line: Antiviral activity against influenza B/Sichuan/83/2000 virus in MDCK cells by CPE assay. The class given is functional, organism-based.
The test system of series [2] is Influenza A virus. Put plainly: Antiviral activity against influenza A/Jingfang/262/95(H1N1) virus in MDCK cells by CPE assay. In kind it is functional, organism-based.
The subject of series [3] is Influenza B virus. Put plainly: Antiviral activity against influenza B/Jingfang/76/98 in MDCK cells by CPE assay. The class given is functional, organism-based.
Series [4] has as its system Influenza A virus. The experiment in a line: Antiviral activity against influenza A/Jifang/15/90 (H3N2) virus in MDCK cells by CPE assay. The class given is functional, organism-based.
The subject of series [5] is Influenza A virus. The experiment in a line: Antiviral activity against influenza A/Hanfang/359/95 (H3N2) virus in MDCK cells by CPE assay. In kind it is functional, organism-based.
The subject of series [6] is Influenza A virus. Put plainly: Antiviral activity against influenza A/Yuefang/243/72 (H3N2) virus in MDCK cells by CPE assay. The class given is functional, organism-based.
Series [7] has as its system Influenza B virus. The experiment in a line: Antiviral activity against influenza B/Jifang/13/97 virus in MDCK cells by CPE assay. The class given is functional, organism-based.
Series [8] relates to Influenza A virus. The experiment in a line: Antiviral activity against influenza A/Jingfang/Fm1 (H1N1) infected in mouse assessed as mean survival time of mouse at 31.25 mg/kg, po bid after 2 hrs of viral infection for 5 days. The class given is functional.
The test system of series [9] is Mus musculus. The experiment in a line: Weight change in mouse at 62.5 mg/kg, ip bid after 14 days. In kind it is ADME, organism-based. The arrangement: dose 62.5 mg/kg, route intraperitoneal. To be noted: in vivo, 336 h.
Series [10] deals with Influenza A virus. The experiment in a line: Antiviral activity against influenza A/Jingfang/Fm1 (H1N1) infected in mouse assessed as mean survival time of mouse at 125 mg/kg, po bid after 2 hrs of viral infection for 5 days. The class given is functional.
Series [11] concerns Mus musculus. The experiment in a line: Survival of mouse at 62.5 mg/kg, po bid after 5 days. In kind it is ADME, organism-based. The arrangement: dose 62.5 mg/kg, route oral. To be noted: in vivo, 120 h.
Series [12] concerns Influenza A virus. The experiment in a line: Antiviral activity against influenza A/Jingfang/Fm1 (H1N1) infected in mouse assessed as survival of mouse at 62.5 mg/kg, po bid after 2 hrs of viral infection for 5 days. The class given is functional.
The test system of series [13] is Mus musculus. Put plainly: Weight change in mouse at 125 mg/kg, po bid after 14 days. Set-up: dose 125 mg/kg, route oral. The following applies: in vivo, 336 h. In kind it is ADME, organism-based.
The subject of series [14] is Influenza A virus. The experiment in a line: Antiviral activity against influenza A/Jingfang/Fm1 (H1N1) infected in mouse assessed as mean survival time of mouse at 62.5 mg/kg, po bid after 2 hrs of viral infection for 5 days. In kind it is functional.
Series [15] has as its system Influenza A virus. Put plainly: Antiviral activity against influenza A/Jingfang/Fm1 (H1N1) virus infected in mouse assessed as survival of mouse at 125 mg/kg, po bid after 2 hrs of viral infection for 5 days. The class given is functional.
Series [16] deals with Influenza A virus. Put plainly: Antiviral activity against influenza A/Jingfang/Fm1 (H1N1) infected in mouse assessed as survival of mouse at 62.5 mg/kg, ip bid after 2 hrs of viral infection for 5 days. In kind it is functional. To be noted: route intraperitoneal.
For series [17], the system named is Influenza A virus. Put plainly: Antiviral activity against influenza A/Jingfang/Fm1 (H1N1) infected in mouse assessed as survival of mouse at 31.25 mg/kg, po bid after 2 hrs of viral infection for 5 days. In kind it is functional.
The subject of series [18] is Mus musculus. Put plainly: Survival of mouse at 62.5 mg/kg, ip bid after 5 days. In kind it is ADME, organism-based. The arrangement: dose 62.5 mg/kg, route intraperitoneal. To be noted: in vivo, 120 h.
The subject of series [19] is Mus musculus. The experiment in a line: Weight change in mouse at 62.5 mg/kg, po bid after 14 days. In kind it is ADME, organism-based. Set-up: dose 62.5 mg/kg, route oral. To be noted: in vivo, 336 h.
The subject of series [20] is Mus musculus. The experiment in a line: Survival of mouse at 125 mg/kg, po bid after 5 days. The class given is ADME, organism-based. Set-up: dose 125 mg/kg, route oral. To be noted: in vivo, 120 h.
In series [21] the test system is Mus musculus. The experiment in a line: Weight change in mouse at 31.25 mg/kg, po bid after 14 days. The following applies: in vivo, 336 h. The class given is ADME, organism-based. Set-up: dose 31.25 mg/kg, route oral.
Series [22] concerns Influenza A virus. The experiment in a line: Antiviral activity against influenza A/Jingfang/Fm1 (H1N1) infected in mouse assessed as mean survival time of mouse at 62.5 mg/kg, ip bid after 2 hrs of viral infection for 5 days. The class given is functional. The following applies: route intraperitoneal.
In series [23] the test system is Mus musculus. The experiment in a line: Survival of mouse at 31.25 mg/kg, po bid after 5 days. To be noted: in vivo, 120 h. The arrangement: dose 31.25 mg/kg, route oral. The class given is ADME, organism-based.
Series [24] has as its system Mus musculus. The experiment in a line: Weight change in mouse at 100 mg/kg, ip bid after 14 days. The class given is ADME, organism-based. The arrangement: dose 100 mg/kg, route intraperitoneal. To be noted: in vivo, 336 h.
The subject of series [25] is Mus musculus. The experiment in a line: Survival of mouse at 100 mg/kg, ip bid after 5 days. The class given is ADME, organism-based. Set-up: dose 100 mg/kg, route intraperitoneal. To be noted: in vivo, 120 h.
The subject of series [26] is Influenza A virus. The experiment in a line: Antiviral activity against influenza A/Jingfang/Fm1 (H1N1) infected in mouse assessed as mean survival time of mouse at 100 mg/kg, ip bid after 2 hrs of viral infection for 5 days. The class given is functional. The following applies: route intraperitoneal.

The text below walks through data of ChEMBL document CHEMBL1149649, “Synthesis and anti-influenza activities of carboxyl alkoxyalkyl esters of 4-guanidino-Neu5Ac2en (zanamivir)” (Bioorg Med Chem Lett, 2007).

In general, IC50 refers to the concentration that inhibits the measured activity by half.

On to `CCCCCCCCCCCCCCCCOCCCOC(=O)C1=C[C@H](NC(=N)N)[C@@H](NC(C)=O)[C@H]([C@H](O)[C@H](O)CO)O1`, for which the concentration for half-maximal inhibition (IC50) in the series with Influenza B virus [1] worked out at 22.3 µM; in the series on Influenza A virus [2] (Influenza A virus, MDCK), 18.1 µM; in the series with Influenza B virus [3], 22.3 µM; in the series on Influenza A virus [4], 3.01 µM; in the series on Influenza A virus [5], 3.06 µM; in the series on Influenza A virus [6] it was 0.301 µM. Besides, it took 23.4 µM to reach half-maximal inhibition in the series on Influenza B virus [7] (IC50).

On to `CCCCCCCCCCCCCCCCCCOCCOC(=O)C1=C[C@H](NC(=N)N)[C@@H](NC(C)=O)[C@H]([C@H](O)[C@H](O)CO)O1`, for which the Activity in the series with Influenza A virus [8] was 9.1 days; in the series with Mus musculus [9], 13.9 g; in the series with Influenza A virus [10] it was 11.2 days; with Mus musculus [11], “Active”; in the series on Mus musculus [13], 12.5 g; in the series with Influenza A virus [14] it was 10.2 days. Also, the Activity result with Mus musculus [18] is “Active”; in the series with Mus musculus [19], 13.5 g; in the series with Mus musculus [20], “Active”; in the series on Mus musculus [21], 12.7 g; in the series with Influenza A virus [22], 11.5 days; in the series on Mus musculus [23], “Active”. Also, the IC50 turned out to be 21.8 µM in the series with Influenza B virus [1]; 26.8 µM in the series on Influenza A virus [2] (Influenza A virus, MDCK); 66.6 µM in the series on Influenza B virus [3]; 2.94 µM in the series on Influenza A virus [4]; 5.89 µM in the series on Influenza A virus [5]; 0.226 µM in the series with Influenza A virus [6]. Besides, the IC50 in the series on Influenza B virus [7] was determined as 247 µM. The survival at 62.5 mg/kg was 40% in the series with Influenza A virus [12] and 60% with Influenza A virus [16]. The survival at 125 mg/kg in the series with Influenza A virus [15] turned out to be 60%. In the series with Influenza A virus [17], the survival at 31.25 mg/kg amounted to 10%.

For `CCCCCCCCCCCCCCOCCCOC(=O)C1=C[C@H](NC(=N)N)[C@@H](NC(C)=O)[C@H]([C@H](O)[C@H](O)CO)O1`, the IC50 worked out at 37.8 µM with Influenza B virus [1]; 18.9 µM in the series on Influenza A virus [2] (Influenza A virus, MDCK); 23.3 µM in the series with Influenza B virus [3]; 2.49 µM with Influenza A virus [4]; 1.06 µM with Influenza A virus [5]; 0.315 µM in the series with Influenza A virus [6]. For the same compound, 31.5 µM corresponded to half-maximal inhibition in the series on Influenza B virus [7] (IC50).

For the compound `NC(=O)c1ncn([C@@H]2O[C@H](CO)[C@@H](O)[C@H]2O)n1` [RIBAVIRIN], the IC50 in the series with Influenza B virus [1] came out at 164 µM; in the series with Influenza A virus [2] (Influenza A virus, MDCK), 176 µM; in the series with Influenza B virus [3], 15.2 µM; with Influenza A virus [4], 5.04 µM; in the series on Influenza A virus [5], 7.01 µM; with Influenza A virus [6], 5.85 µM. This compound gave a half-maximal inhibitory concentration (IC50) in the series on Influenza B virus [7] of 96.2 µM. The Activity is 11.5 g in the series on Mus musculus [24], “Active” with Mus musculus [25] and 14 days in the series on Influenza A virus [26].

For the compound `CC(=O)N[C@H]1[C@H]([C@H](O)[C@H](O)CO)OC(C(=O)O)=C[C@@H]1NC(=N)N` [ZANAMIVIR], the IC50 is 1580 µM with Influenza B virus [1]; 16.7 µM with Influenza A virus [2] (mdck); 223 µM in the series with Influenza B virus [3]; 0.469 µM in the series on Influenza A virus [4]; 0.385 µM in the series on Influenza A virus [5]; 0.075 µM with Influenza A virus [6].
